≈ marks a conversion by molar mass, not a printed value.
How the values were obtained:
PDE4D = target: T1, PDE4D (Homo sapiens, UniProt Q08499); test: Inhibition of PDE4 isozymes ([3H]cAMP SPA): PDE4D; format: biochemical; details: @ 0.1 μg/ml, pH 7.4 Tris buffer
T1 construct: purchased Fab Gennix International Inc. (Frisco, Tex./USA)
Experimental: (§1) Inhibition of PDE4 Isozymes: Compounds of the instant invention were evaluated for their ability to inhibit isozymes of phosphodiesterase 4 (PDE4) obtained from Fab Gennix International Inc. (Frisco, Tex./USA) according to a literature method. […] In brief, a compound at a designated dose was assayed for their ability to inhibit the hydrolysis of cAMP by a PDE4 isozyme in pH 7.4 Tris buffer. The resulting level of cAMP was determined by the scintillation proximity assay (SPA) using a SPA kit from Amersham Biosciences according to the supplier's instruction manual (TRKQ7090 Phosphodiesterase [^3H]cAMP SPA enzyme assay).

PDE4A = target: T2, PDE4A (Homo sapiens, UniProt P27815); test: Inhibition of PDE4 isozymes ([3H]cAMP SPA): PDE4A; format: biochemical; details: @ 0.5 μg/ml, pH 7.4 Tris buffer
T2 construct: purchased Fab Gennix International Inc. (Frisco, Tex./USA)
Experimental: as §1

[1] = system: production of TNF-α in rat PBMCs; test: Inhibition of TNF-α production in rat PBMCs (LPS/IFN-γ stimulated, ELISA); format: cell-based; details: PBMC; rat PBMCs, LPS + IFN-γ, 18 hours
Experimental: (§2) Compounds of this invention were evaluated for their ability to inhibit the production of TNF-α in stimulated immune cells. […] Compounds of the present invention were evaluated for their therapeutic activity in animal models for inflammatory or immunological disorders. Also compounds of this invention were assayed for their ability to inhibit PDE4 isozymes.
Inhibition of TNF-α Production in Rat PBMCs: Compounds of the present invention were evaluated for their ability to inhibit the production of TNF-α in rat peripheral blood mononuclear cells (PBMCs) as described in the literature. [Exp. Geront. vol 37, 235-247 (2002)] In brief, 6 ml rat blood drawn from the abdominal vein as treated with ACD (acid/citrate/dextrose) was carefully added in a tube containing 6 ml Ficoll 1077, and the tube was centrifuged for 30 min at 1500 rpm (415 G) at room temperature. The cell fraction (middle fraction) was suspended in a 50 ml tube containing phosphate buffered saline (PBS). The tube was centrifuged for 5 min at 2000 rpm (737 G). The resulting pellet was suspended in 6 ml PBS and 6 ml Ficoll 1077, and centrifuged for 30 min at 1500 rpm (415 G) at room temperature to remove remaining plasma. The cell fraction was suspended in PBS and centrifuged for 5 min at 2000 rpm. Such a washing was repeated twice. Then the collected cells were suspended in 10 ml RPMI-1640 containing 10% FBS and further diluted to contain 4×10^6 cells per ml. The cell suspension was dispensed into a 96-well plate at 100 μl per well, which was pre-supplemented with 1 μl of either DMSO (placebo) or a DMSO stock solution containing a designated concentration of a compound of this invention. The plate was cultured for an hour at 37° C. under 5% CO2 and 95% O2. To each well, was added 100 μl RPMI-1640 containing 0.1 μg/ml LPS, 5 U/ml IFN-γ, and 10% FBS. Then the plate was subjected to a culture for 18 hours at 37° C. under 5% CO2 and 95% O2. An aliquot of the supernatant from each well was subjected to an ELISA assay to determine the TNF-α level in the well.

[2] = system: production of TNF-α in mice stimulated with LPS; test: In vivo inhibition of TNF-α production in mice stimulated with LPS; details: Mus musculus, 2 h, LPS i.p., plasma at hour 2, read-out: % Inhibition of in vivo TNF-α production @ dose; for inhibition in vivo at 3 mg/kg: 3 mg/kg oral gavage
Experimental: [J. Pharmacol. Exp. Therapeut. vol 279, 1453-1461 (1996)] In brief, either a compound of the instant invention with vehicle or vehicle only (5% Tween 80) was administered by oral gavage (10 ml/kg body weight) at hour 0 to mice (Balb/C or ICR, 25˜30 g) fasted overnight. The mice were subjected to a peritoneal injection with […] LPS per mouse at hour 0.5, and blood was drawn from the abdominal vein at hour 2 following euthanasia with CO2. Then plasma separated from the drawn blood by centrifugation was subjected to an ELISA assay to measure the level of TNF-α.

[3] = system: production of TNF-α in human PBMCs; test: Inhibition of TNF-α production in human PBMCs (ELISA); format: cell-based; details: PBMC
Experimental: as §2
Inhibition of TNF-α Production in Human PBMCs: Compounds of the present invention were evaluated for their ability to inhibit the production of TNF-α in human PBMCs as described in the literature. [J. Med. Chem. vol 39, 3238-3240 (1996)] Blood was freshly drawn from healthy human subjects as treated with ACD to isolate human PBMCs according to the procedure employed for rat PBMCs. The employed assay method for the ELISA against human TNF-α was essentially identical to that for the rat TNF-α ELISA assay.

[4] = system: cAMP degradation in U937 cells; test: In vitro inhibition of cAMP degradation in U937 cells (forskolin, cAMP EIA); format: cell-based; details: Homo sapiens, U-937, 10 μM forskolin
Experimental: In vitro Inhibition of cAMP Degradation in U937 Cells: Compounds of this invention were evaluated for their ability to inhibit in cells the hydrolysis of cAMP induced by forskolin, an adenylate cyclase stimulator. In brief, 3×10^5 U937 cells per well on a 96-well plate were incubated for 10 min at 37° C. in 200 μl RPMI-1640 containing 10% FBS, which was followed by treatment of either DMSO or a DMSO stock solution of a compound of the present invention at a designated dose. Then the cells were stimulated with 10 μM forskolin for 10 min at 37° C. The plate was centrifuged for 5 min at 1500 rpm. 120 μl of the supernatant was carefully removed from each well and 200 μl of lysis agent 1B was added to the well. Then the cell lysate was assayed to determine the level of cAMP by enzyme immunoassay (EIA) using a cAMP EIA kit from Amersham Pharmacia Biotech (Kit #RPN225). IC50's were determined for compounds of this invention from dose response curves for cAMP levels.

[5] = system: colitis induced by dextran sulfate sodium (DSS) in Balb/c mice; test: DSS-induced colitis in mice; format: in vivo; details: 50 mg/kg BID oral, day 11, p>0.05
Experimental: Therapeutic Effect in DSS-induced Colitis: Compounds of the present invention were evaluated for their ability to treat colitis induced by dextran sulfate sodium (DSS) in mice according to the literature. […] In brief, female Balb/c mice weighing 16-20 g were randomized into groups (5˜6 per group) and were allowed from day 1 free access to water containing 5% DSS. A compound of this invention or sulfasalazine in 5% Tween 80 at 10 ml/kg was orally administered twice a day. Clinical activity score of each animal was measured on a daily basis by evaluating the stool consistency, body weight and rectal bleeding.

T1 sequence (Q08499 whole entry): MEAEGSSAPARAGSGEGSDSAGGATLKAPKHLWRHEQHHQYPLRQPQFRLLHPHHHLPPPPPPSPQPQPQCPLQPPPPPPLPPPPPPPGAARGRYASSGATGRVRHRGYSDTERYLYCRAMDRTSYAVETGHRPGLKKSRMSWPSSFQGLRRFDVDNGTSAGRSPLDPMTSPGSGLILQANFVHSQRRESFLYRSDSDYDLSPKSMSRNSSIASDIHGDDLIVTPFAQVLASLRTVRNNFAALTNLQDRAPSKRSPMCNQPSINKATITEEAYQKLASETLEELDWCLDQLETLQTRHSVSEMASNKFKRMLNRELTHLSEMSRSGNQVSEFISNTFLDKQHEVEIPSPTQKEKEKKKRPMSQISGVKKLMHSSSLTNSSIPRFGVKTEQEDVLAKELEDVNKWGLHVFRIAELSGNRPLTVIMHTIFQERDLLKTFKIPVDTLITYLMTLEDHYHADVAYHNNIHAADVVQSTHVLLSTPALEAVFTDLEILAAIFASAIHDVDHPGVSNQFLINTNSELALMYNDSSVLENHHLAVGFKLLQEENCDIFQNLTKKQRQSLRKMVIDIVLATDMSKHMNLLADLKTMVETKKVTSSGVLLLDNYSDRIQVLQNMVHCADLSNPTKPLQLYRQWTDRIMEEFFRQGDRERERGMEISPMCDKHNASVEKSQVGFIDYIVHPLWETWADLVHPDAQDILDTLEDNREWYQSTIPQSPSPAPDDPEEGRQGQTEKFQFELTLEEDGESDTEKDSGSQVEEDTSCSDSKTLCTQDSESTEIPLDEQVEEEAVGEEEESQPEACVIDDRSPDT
T2 sequence (P27815 whole entry): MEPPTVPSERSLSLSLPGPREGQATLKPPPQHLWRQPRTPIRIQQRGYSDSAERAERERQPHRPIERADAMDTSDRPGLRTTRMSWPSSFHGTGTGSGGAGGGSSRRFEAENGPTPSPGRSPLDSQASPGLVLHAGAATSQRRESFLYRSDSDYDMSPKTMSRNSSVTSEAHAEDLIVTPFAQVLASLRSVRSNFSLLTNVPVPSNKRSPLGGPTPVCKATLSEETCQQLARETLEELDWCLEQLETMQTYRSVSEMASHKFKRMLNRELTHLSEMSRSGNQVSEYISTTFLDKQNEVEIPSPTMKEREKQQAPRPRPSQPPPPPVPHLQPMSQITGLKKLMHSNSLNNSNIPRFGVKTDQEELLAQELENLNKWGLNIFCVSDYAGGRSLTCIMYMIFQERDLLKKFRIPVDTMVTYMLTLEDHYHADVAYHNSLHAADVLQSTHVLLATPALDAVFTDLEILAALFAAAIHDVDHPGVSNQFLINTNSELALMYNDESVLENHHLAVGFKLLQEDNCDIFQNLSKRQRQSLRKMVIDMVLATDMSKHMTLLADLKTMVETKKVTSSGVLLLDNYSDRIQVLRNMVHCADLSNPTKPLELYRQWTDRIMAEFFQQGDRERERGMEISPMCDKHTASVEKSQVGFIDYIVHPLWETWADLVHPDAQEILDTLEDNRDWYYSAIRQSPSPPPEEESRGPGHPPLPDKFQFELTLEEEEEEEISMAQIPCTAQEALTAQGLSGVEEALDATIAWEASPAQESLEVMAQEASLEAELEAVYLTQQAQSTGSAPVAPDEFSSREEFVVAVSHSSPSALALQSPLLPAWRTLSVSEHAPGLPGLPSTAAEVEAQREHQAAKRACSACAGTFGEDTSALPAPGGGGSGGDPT

Structure (SMILES)	inhibition at 0.1 µg/mL (PDE4D) [%]	inhibition at 0.5 µg/mL (PDE4A) [%]	IC50 [1] [µg/mL]	melting point [°C]	inhibition in vivo at 3 mg/kg [2] [%]	IC50 [3] [µg/mL]	IC50 [4] [µg/mL]	inhibition in vivo at 0.3 mg/kg ([2]; 0.3 mg/kg oral gavage) [%]	inhibition in vivo at 1 mg/kg ([2]; 1 mg/kg oral gavage) [%]	inhibition in vivo at 0.2 mg/kg ([2]; 0.2 mg/kg oral gavage) [%]	improvement in the clinical score activity from the control group [5] [%]
ON=C1CCC(C2CCCC2)=C1c1ccc(F)cc1 [Example 1, 3-cyclopentyl-2-(4-fluorophenyl)-2-cyclopenten-1-one oxime]	79	72	0.12	204 to 205	72						
ON=C1CCC(C2CCCC2)=C1c1ccc(F)c(F)c1 [Example 2, 3-cyclopentyl-2-(3,4-difluorophenyl)-2-cyclopenten-1-one oxime]			0.035	173 to 174		0.072 (≈ 0.26 µM)	0.1 (≈ 0.361 µM)	78			
ON=C1CCC(C2CCCC2)=C1c1ccc(F)c(Cl)c1 [Example 3, 2-(3-chloro-4-fluorophenyl)-3-cyclopentyl-2-cyclopenten-1-one oxime]	78	89	0.053	143 to 144							
ON=C1CCC(C2CCCC2)=C1c1ccc2c(c1)OCO2 [Example 10, 3-cyclopentyl-2-(3,4-methylenedioxyphenyl)-2-cyclopenten-1-one oxime]	38	33	0.097	186 to 188							
ON=C1CCC(C2CCCCC2)=C1c1ccc(F)c(Cl)c1 [Example 28, 2-(3-chloro-4-fluorophenyl)-3-cyclohexyl-2-cyclopenten-1-one oxime]	87	58	0.13	158 to 160	88						
CCCCC1=C(c2ccc3c(c2)OCO3)C(=NO)CC1 [Example 45, 3-butyl-2-(3,4-methylenedioxyphenyl)-2-cyclopenten-1-one oxime]			0.69	116 to 120		0.8 (≈ 2.93 µM)	0.87 (≈ 3.18 µM)		42		
CCCC1=C(c2ccc(F)c(F)c2)C(=NO)CC1 [Example 79, 2-(3,4-difluorophenyl)-3-propyl-2-cyclopenten-1-one oxime]	23	0	0.18	136 to 137	85						
COc1ccc(C2CNC(=O)C2)cc1OC1CCCC1 (centres unmarked) [Rolipram, rolipram, reference compound]			0.05 to 0.1			0.01 to 0.1 (≈ 0.0363 to 0.363 µM)	0.27 (≈ 0.981 µM)			~50	
O=C(O)c1cc(/N=N/c2ccc(S(=O)(=O)Nc3ccccn3)cc2)ccc1O [sulfasalazine]											19

Reference: patent US8013187B2, “2-cyclopenten-1-one oxime derivatives inhibiting production of TNF-α” (Amorepacific Corporation, priority 2004, dated 2011)
